Measurements: paper PMC6842543, “Antiparasitic effect of synthetic aromathecins on Leishmania infantum” (BMC Veterinary Research, 2019)
Converted amounts (≈) assume the structure as drawn. “Also recorded” adds a separate entry of the source. Read-outs that look alike come from different tables or passages of the source.

What was measured:
L. infantum amastigotes = assay: Ex vivo murine splenic explant culture with intramacrophagic iRFP L. infantum amastigotes; assay type: cell-based, Leishmania infantum; conditions: for SI: Selectivity Index = CC50/EC50 (amastigotes): CC50 murine splenocytes / EC50 amastigotes; for EC50: Leishmania infantum, 72 h, read-out: EC50 L. infantum amastigotes
Experimental: (§1) Two series of aromathecins (Table 1) have been tested against both stages of L. infantum, free-living promastigotes and intracellular amastigotes harbored in mouse splenic cells. Experiments were carried out using a genetically modified L. infantum strain that constitutively produces the iRFP protein. This makes it possible to evaluate the viability of parasites measuring the fluorescence emitted at 708 nm.
Primary splenocyte cultures containing intramacrophagic amastigotes were obtained from dissected spleens of female BALB/c mice infected intraperitoneally with 1.5 × 10^9 metacyclic iRFP L. infantum promastigotes, 5 weeks before their sacrifice. Mice were obtained commercially (Janvier-Labs). Animals were housed in specific-pathogen free facilities and they were euthanized by cervical dislocation without anesthesia. These protocols were approved by the Animal Care Committee of University of Leon (project license SAF2017–83575-R), which complies with European Union Legislation (2010/63/UE) and Spanish Act (RD 53/2013).
(§2) The spleens were washed with cold phosphate-buffered saline (PBS), cut in small pieces and incubated for 20 min with 5 mL of 2 mg/mL collagenase D (Sigma) prepared in buffer (10 mM HEPES, pH 7.4, 150 mM NaCl, 5 mM KCl, 1 mM MgCl2 and 1.8 mM CaCl2). After that, the cell suspension obtained was passed through a 100 μm cell strainer, harvested by centrifugation (500×g for 7 min at 4 °C), washed twice with PBS, and cultured at 37 °C under 5% CO2 atmosphere in RPMI medium (Gibco) supplemented with 10 mM HEPES, 1 mM sodium pyruvate, 1xRPMI 1640 vitamin mix, 10% (v/v) FBS, 50 U/mL penicillin and 50 μg/mL streptomycin (Calvo-Álvarez et al., 2015).
(§3) The viability of cultured parasites in the presence of different concentrations of aromathecins was determined by measuring the reduction of infrared fluorescence emitted by free-living promastigotes/amastigotes with respect to negative controls of each form of the parasite treated with DMSO (up to 0.1% final concentration) as a vehicle. […] After 72 h incubation at 26 °C, the infrared fluorescence emitted at 708 nm by viable promastigotes/amastigotes was measured in an Odyssey (Li-Cor) infrared imaging system. Similarly, the cytotoxic effect (CC50) of aromathecins on uninfected splenic explants from BALB/c mice (cells that naturally harbor the amastigote stage) was measured by the Alamar Blue (Invitrogen) assay. The selectivity index (SI) was determined as the relationship between the CC50 value and the EC50 value for amastigotes. CC50 and EC50 were calculated by nonlinear analysis using the Sigma-Plot 10.0 statistical package. The aromathecins were dissolved in DMSO and stored at − 20 °C before their use as fresh aliquots.

[1] = Cytotoxicity on uninfected splenic explants (Alamar Blue); assay type: cell-based, BALB/c mice; conditions: mouse, uninfected splenic explants from BALB/c mice, Alamar Blue
Experimental: as §2, §3

recombinant LTopIB = assay: TopIB relaxation activity assay (supercoiled pBluescript-SK plasmid, agarose gel with ethidium bromide); assay type: biochemical, Leishmania; conditions: for Inhibition of LTopIB relaxation activity (in words): 0.01, 0.1, 1, 10 and 100 μM, 26 °C, 4 min; for Concentration at which partial inhibition of LTopIB started: not concentration dependent; for Total inhibition of LTopIB: only at high concentration (100 μM)
Experimental: In addition to the antileishmanial effect of these compounds, their activity as LTopIB inhibitors was analyzed in vitro (Fig. 2). Recombinant LTopIB was produced in a TopIB-defective yeast platform, and purified by standard chromatographic protocols. The effect of aromathecins (comp. 1 to 10) on LTopIB was addressed by measuring the relaxation of negatively supercoiled pBluescript-SK DNA plasmid in the presence of different concentrations of these molecules. In order to separate the nicked DNA generated by the cleavage-complex stabilization from the relaxed topoisomers, gels were run in the presence of ethidium bromide.
Fig. 2 Inhibition of LTopIB relaxation activity of negatively supercoiled pBluescript SK (−) plasmid (pSK) mediated by different aromathecins concentrations (0.01, 0.1, 1, 10 and 100 μM). The control reaction contained 1% DMSO. DNA was separated by gel electrophoresis in 1% agarose containing 0.1 μg/mL ethidium bromide. Gels were visualized with UV illumination. Key: R = relaxed DNA; Sc = supercoiled DNA; N = nicked DNA
Expression and purification of LTopIB were carried out according to a previously standardized protocol. LTopIB was purified from yeast strain EKY3 deficient in TopIB activity [MATα, ura3–52, his3Δ200, leu2Δ1, trp1Δ63, top1Δ:TRP1], transfected with the pESC-URA plasmid containing both subunits of LTopIB. Cells were grown in yeast synthetic drop-out medium without uracil (Sigma) supplemented with 2% raffinose (w/v) to OD600: 0.8–1 and induced for 10 h with 2% galactose (w/v). Yeast were harvested, washed with cold TEEG buffer (50 mM Tris-HCl pH 7.4, 1 mM EDTA, 1 mM EGTA, 10% glycerol) and resuspended to their lysis in 15 mL of 1 x TEEG buffer supplemented with 0.2 M KCl and a protease inhibitors cocktail (Thermo Scientific). Protein extract obtained was loaded on a 5 mL P-11 phosphocellulose column (Whatman International Ltd. England). LTopIB protein was eluted at 4 °C with a discontinuous gradient of KCl (0.2, 0.4, 0.6 M) in TEEG buffer.
The effect of aromathecins on recombinant LTopIB was determined by measuring the relaxation of negatively supercoiled pBluescript-SK DNA plasmid (pSK). Thus, 20 μL of reaction mixture (0.5 μg pSK; 10 mM Tris-HCl pH 7.5; 5 mM MgCl2; 0.1 mM EDTA; 15 μg/mL bovine serum albumin) along with 0.01, 0.1, 1, 10 and 100 μM of the different aromathecins were incubated at 26 °C during 4 min. The control reaction performed without aromathecins contained 1% DMSO. Reactions were stopped by adding 1% SDS (final concentration), digested with 1 mg/mL proteinase K at 37 °C during 1 h and extracted with phenol/chloroform. DNA was separated by gel electrophoresis in 1% agarose containing 0.1 μg/mL ethidium bromide in 0.1 M Tris borate EDTA buffer (pH 8.0) at 4 V/cm for 16 h. Gels were visualized with UV illumination.

[2] = test system: L. infantum promastigotes; assay: In vitro iRFP L. infantum promastigotes viability assay (infrared fluorescence); assay type: cell-based, Leishmania infantum; conditions: Leishmania infantum, 72 h, read-out: EC50 L. infantum promastigotes
Experimental: as §1
The antiparasitic activity of the compounds was assessed on the genetically modified iRFP L. infantum strain, which constitutively produces the infrared fluorescent protein (iRFP) when cells are viable. iRFP L. infantum was grown at 26 °C in M-199 medium (Gibco) supplemented with 25 mM HEPES pH 7.2, 0.1 mM adenine, 0.0005% (w/v) hemin, 2 μg/mL biopterin, 0.0001% (w/v) biotin, 10% (v/v) heat-inactivated fetal bovine serum (FBS) and an antibiotic cocktail comprising 50 U/mL penicillin and 50 μg/mL streptomycin.
as §3

L. infantum WT strain = assay: Susceptibility of WT strain promastigotes; assay type: cell-based, Leishmania infantum
Experimental: (§4) In order to evaluate if aromathecins would share the transporter involved in CPT resistance, one of the major problems related to the loss of effectiveness of CPT derivatives, a CPT-resistant strain was generated. The CPT-resistant strain used was generated by the exposure of L. infantum promastigotes to increasing concentrations of CPT, from 0.1 to 20 μM (CPT-20, from now on). […] Therefore, it is very likely that the resistance mechanism of CPT-20 is related to the overexpression of the ABCG6 transporter previously described as the drug-efflux pump involved in the CPT resistance mechanism. The CPT-20 strain was susceptible to the aromathecins assayed in this work (2, 5 and 10 were not assayed due to their poor effect against iRFP L. infantum promastigotes), showing very similar EC50 values to those obtained with iRFP L. infantum.

[3] = test system: CPT-20 (CPT-resistant L. infantum promastigotes); assay: Susceptibility of CPT-resistant strain CPT-20 promastigotes; assay type: cell-based, Leishmania infantum; conditions: read-out: EC50 in CPT-20 strain
Experimental: as §4
(§5) The CPT resistant strain used in this work was generated exposing L. infantum promastigotes to increased concentrations of CPT, from 0.1 to the solubility limit of the compound, 20 μM in the case of CPT. Parasites were grown at 26 °C in M199 medium supplemented as described previously, each culture being inoculated at an initial density of 10^6 cells/mL. The promastigotes cultured in liquid medium in the presence of 20 μM CPT, were plated on semisolid M199 medium containing 20 μM CTP in order to select a single colony.

[4] = Solubility limit in culture medium; assay type: physicochemical; conditions: M199 culture medium
Experimental: as §5

[5] = splenic-infecting amastigotes, ex vivo explants from infected BALB/c mice
[6] = uninfected splenic explants (murine splenocytes)
[7] = iRFP-L. infantum promastigotes, 26 °C, fluorescence at 708 nm, average of three experiments by duplicate
[8] = read-out: CC50 Murine Splenocytes

Compound	SI: Selectivity Index = CC50/EC50 (amastigotes) (L. infantum amastigotes)	EC50 (L. infantum amastigotes; [5])	CC50 at 72 h [1, 6]	Inhibition of LTopIB relaxation activity (in words) (recombinant LTopIB)	Concentration at which partial inhibition of LTopIB started (recombinant LTopIB)	EC50 [2, 7]	further results
O=c1c2ccccc2cc2n1Cc1c-2nc2ccccc2c1CCCNCCO [Compound 4]	5.0	990 ± 1170 nM	4960 ± 520 nM	partial inhibition	0.01 µM	4.99 ± 0.31 µM	–
CCc1c2c(nc3ccc(O)cc13)-c1cc3c(c(=O)n1C2)COC(=O)[C@]3(O)CC [SN38]	–	–	–	–	–	–	EC50 (L. infantum WT strain): 4.73 ± 0.14 µM; EC50 ([3]; CPT-resistant L. infantum promastigotes selected up to 20 μM CPT): 40.98 ± 0.3 µM
O=c1c2ccccc2cc2n1Cc1c-2nc2ccccc2c1CCCn1ccnc1 [Compound 5]	5.2	440 ± 30 nM	–	partial inhibition	0.01 µM	> 20 µM	CC50 at 72 h [1, 8]: 2310 ± 720 nM
NCCCc1c2c(nc3cc4c(cc13)OCCO4)-c1cc3ccccc3c(=O)n1C2 [Compound 7]	–	1110 ± 80 nM	–	partial inhibition	0.01 µM	13.3 ± 2.74 µM	CC50 at 72 h [1, 8]: 310 ± 40 nM; Total inhibition of LTopIB (recombinant LTopIB): total inhibition
CN(C)CCCc1c2c(nc3ccccc13)-c1cc3ccccc3c(=O)n1C2 [Compound 1]	9.8	450 ± 140 nM	4410 ± 1070 nM	partial inhibition; also recorded: inhibit the enzyme at very low concentrations	0.01 µM	6.27 ± 0.7 µM	–
CN(C)Cc1c2c(nc3cc4c(cc13)OCCO4)-c1cc3ccccc3c(=O)n1C2 [Compound 8]	10.6	350 ± 30 nM	3720 ± 760 nM	–	–	5.09 ± 0.82 µM	Nicked DNA from cleavage-complex stabilization (recombinant LTopIB; gel run in the presence of ethidium bromide): weak band of nicked DNA; also recorded: nick DNA from cleavage-complex stabilization
NCCCCNCc1c2c(nc3ccccc13)-c1cc3ccccc3c(=O)n1C2 [Compound 3]	2.5	1010 ± 130 nM	2530 ± 140 nM	partial inhibition	0.01 µM	3.71 ± 0.45 µM	Total inhibition of LTopIB (recombinant LTopIB): total inhibition
NCCNCc1c2c(nc3ccccc13)-c1cc3ccccc3c(=O)n1C2 [Compound 2]	–	810 ± 50 nM	2170 ± 270 nM	–	–	> 20 µM	–
CC[C@@]1(O)C(=O)OCc2c1cc1n(c2=O)Cc2cc3ccccc3nc2-1 [CPT, Camptothecin, reference compound]	–	–	–	–	–	–	EC50 (L. infantum amastigotes): 30 ± 10 nM; CC50 at 72 h [1, 8]: 620 ± 10 nM; solubility [4]: 20 µM (≈ 6.97 µg/mL); EC50 [2]: 1.12 ± 0.13 µM
CN(C)CCCc1c2c(nc3cc4c(cc13)OCCO4)-c1cc3ccccc3c(=O)n1C2 [Compound 9]	8.0	370 ± 1060 nM	3040 ± 1060 nM	only happed at a high concentration	–	3.03 ± 0.45 µM	Total inhibition of LTopIB (recombinant LTopIB): total inhibition
CC[C@@]1(O)C(=O)OCc2c1cc1n(c2=O)Cc2cc3c(CN(C)C)c(O)ccc3nc2-1 [topotecan]	–	–	–	–	–	–	EC50 (L. infantum WT strain; Leishmania infantum): 9.54 ± 0.22 µM; EC50 ([3]; Leishmania infantum): > 100 µM
O=c1c2ccccc2cc2n1Cc1c-2nc2cc3c(cc2c1Cn1ccnc1)OCCO3 [Compound 10]	9.3	580 ± 50 nM	5560 ± 1130 nM	did not have any inhibitory effect; also recorded: do not have LTopIB inhibitory activity	–	> 20 µM	–
O=c1c2ccccc2cc2n1Cc1c-2nc2cccc(Cl)c2c1CNCCCn1ccnc1 [Compound 6]	3.7	190 ± 30 nM	700 ± 120 nM	did not have any inhibitory effect; also recorded: do not have LTopIB inhibitory activity	–	3.33 ± 0.17 µM	–
